Source: patent US6894050B2, “5-HT receptor ligands and uses thereof” (Pfizer Inc., priority 2001, dated 2005)
Structures can show the parent of a compound that is named as a salt.

Tests used:
human 5HT2c receptor = biological target: T1, human 5HT2c receptor (Homo sapiens, UniProt P28335); experiment: 5HT2c Binding Procedure (competition binding against 3H-5HT); conditions: Swiss 3T3 mouse cells transfected with human 5HT2c receptor
T1 construct: expressed in transfected cells; host or cells: Swiss 3T3 mouse cells
T1 sequence (P28335 33-458): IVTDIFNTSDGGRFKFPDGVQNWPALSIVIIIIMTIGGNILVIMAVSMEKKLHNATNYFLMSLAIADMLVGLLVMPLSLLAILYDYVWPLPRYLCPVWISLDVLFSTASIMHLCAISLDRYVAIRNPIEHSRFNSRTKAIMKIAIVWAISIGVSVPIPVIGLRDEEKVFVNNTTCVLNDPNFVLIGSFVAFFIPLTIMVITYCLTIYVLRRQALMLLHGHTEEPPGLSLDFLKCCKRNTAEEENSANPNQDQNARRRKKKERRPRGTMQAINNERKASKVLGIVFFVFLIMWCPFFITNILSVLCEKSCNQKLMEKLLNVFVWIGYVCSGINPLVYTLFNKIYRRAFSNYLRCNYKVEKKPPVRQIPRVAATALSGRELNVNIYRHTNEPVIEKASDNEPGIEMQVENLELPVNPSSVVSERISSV
Protocol: Affinity of compounds at the serotonin 5HT2c binding site was determined by competition binding in Swiss 3T3 mouse cells (available from the American Type Culture Collection (ATCC), Manassas, Va.) transfected with the human 5HT2c receptor against 3H-5HT. The method was adapted from Roth et al., J. of Pharm. And Exp. Therap., 260(3), 1362-1365 (1992). Cells were grown in DMEM high glucose medium, harvested, homogenized, centrifuged, and resuspended in 50 mM Tris-HCL. They were incubated at 37° C. for 15 minutes, centrifuged, and then resuspended into assay buffer (50 mM Tris-HCl, 4 mM CaCl2, 0.1% ascorbic acid, and 100 μM pargyline at pH 7.7) at 100 volumes per gram. Assay tubes contained 25 μL of 10 nM ^3H-5HT (1 nM final conc.), and 25 μl of vehicle (assay buffer), blank (10 μM mianserin), or test compound (10× final volume). 200 μl of tissue homogenate was added to each tube, vortexed, and incubated for 30 minutes at 37° C. Samples were then rapidly filtered under vacuum with a Skatron™ cell harvester (available from Molecular Devices Corporation, Sunnyvale, Calif.) using GF/B filters presoaked in 0.5% polyethyleneimine (PEI), and washed with 2×5 mL cold 50 mM Tris-HCl. Filter mats were removed and counted in a Wallac Betaplate counter (available from PerkinElmer Life Sciences, Gaithersburg, Md.). […]

[1] = tested on: anaesthetised rabbit model of erection; experiment: Penile ICP in anaesthetised rabbit model of erection, combination with PDE5 inhibitor; assay type: in vivo; conditions: 5-10 mg/kg s.c. with selective PDE5 inhibitor 1 mg/kg i.v.
Protocol: The effects of concomitant administration of compound(s) of formula (I) in combination with a PDE5 inhibitor on the penile intracavernosal pressure (ICP) in an anaesthetised rabbit model of erection can be measured according to the following protocol.
Male New Zealand rabbits (˜2.5 kg) are pre-medicated with a combination of Medetomidine (Domitor®) 0.5 ml/kg inramuscularly (i.m.), and Ketamine (Vetalar®) 0.25 ml/kg i.m. whilst maintaining oxygen intake via a face mask. The rabbits are tracheotomised using a Portex™ uncuffed endotracheal tube 3 ID (internal diameter), connected to ventilator and maintained at a ventilation rate of 30-40 breaths per minute, with an approximate tidal volume of 18-20 ml, and a maximum airway pressure of 10 cm H2O. Anaesthesia was then switched to Isoflurane® and ventilation continued with O2 at 2 liters/min. The right marginal ear vein was cannulated using a 23G or 24G catheter, and Lactated Ringer solution perfused at 0.5 ml/min. […]
The left groin area of the rabbit was shaved and a vertical incision was made approximately 5 cm in length along the thigh. […] Systolic and diastolic pressures were measured, and the mean arterial pressure calculated using the formula (diastolic×2+systolic)÷3. Heart rate was measured via the pulse oxymeter and Po-ne-mah data acquisition software system (Ponemah Physiology Platform, Gould Instrument Systems Inc). […]

conscious male rat = experiment: Intracavernosal pressure (ICP) by telemetric recording in the conscious male rat; assay type: in vivo
Excerpt: ICP Protocol: Intra cavernosal pressure (ICP) can be measured in the conscious rat by means of telemetric recording. A catheter is surgically implanted into the corpus cavernosum. The end of the catheter is linked to a device, which senses, processes, and transmits information digitally from within the animal. A receiver converts the radio-frequency signal from the implant to a digital pulse stream that is readable by a data collection system. The PC-based system collects telemetred data from the animal.
Surgery:—Induce and maintain general anaesthesia using 5% Isoflurane® in a carrier gas of 0.5 L/min oxygen and 1 L/min nitrous oxide to induce anaesthesia, reducing to 2% Isoflurane for maintenance anaesthesia. Administer 5 mg/kg subcutaneously (s.c.) Carprofen (Rimadyl® Large Animal Injection, 50 mg/ml, Pfizer Animal Health) at induction of anaesthesia, at end of day of surgery and on the morning of first day post-surgery to minimise pain and discomfort.
Implantation of corpus cavernosal probe:—Shave the skin of the ventral abdomen and extend to include the area around the penis and ventral scrotum. Clean and disinfect the shaved area. Place the rat in dorsal recumbency. Make a mid-line incision from the external base of the penis, running caudally for approximately 2 cm. Locate and expose the internal structure of the penis and identify the corpus cavernosum. Make a mid-line laparotomy, approximately 4 cm in length to access the abdominal cavity. Pierce the abdominal wall via the caudal incision with a suitable trocar and cannula, taking care not to damage any internal organs. Place the implant body in the abdominal cavity with the catheter orientated caudally and pass the catheter tip through the body wall via the preplaced cannula. Implant used is model TA11PA-C40, 8 mm catheter, with modified 3 mm tip (Data Sciences International Inc.). Secure the implant body to the abdominal wall using non-absorbable sutures and partially close the abdominal incision. Reflect the tip of the penis cranially and retract the caudal incision to optimise the surgical field. Carefully isolate approximately 10 mm of the internal structure of the penis from the surrounding tissue. Carefully reflect the corpus spongiosum to one side to give access to the corpus cavernosum. Access the corpus cavernosum using a modified over-the-needle catheter to puncture the tunica. Introduce the catheter tip via the preplaced catheter and advance until fully inserted. Carefully remove the access catheter and apply a suitable tissue adhesive to the insertion site. Observe for leakage. Close the subcutaneous fat layer in the caudal incision before closing with an appropriate absorbable suture. Instil approximately 5 ml of warm saline through the abdominal incision and complete closure of the mid-line incision. Close the skin incision with an appropriate absorbable suture.
Postoperative care:—Measure food and water intake and monitor bodyweight daily for at least 7 days post surgery, then 2-3 times weekly. Give Lectade® (Pfizer Animal Health) in drinking water for 3 days post surgery. House rats singly, and transfer to reverse light/dark conditions 5 days post surgery. Named Veterinary Surgeon (or Deputy) to issue a certificate of fitness to continue 2 days post surgery. Start using rats experimentally 7 days post surgery.
Experimental Procedure:—Perform experiment in room with reverse light/dark conditions. […] Take baseline reading of intra cavernosal pressure (ICP) for approximately 5 minutes. […]

rat 5HT2A receptor = biological target: T2, rat 5HT2A receptor (Rattus norvegicus, UniProt P14842); experiment: 5HT2A Binding Procedure (competition binding using 125I-DOI); conditions: NIH 3T3 mouse cells transfected with rat 5HT2A receptor, read-out: Ki values for 5HT2a binding (upper end of range)
T2 construct: expressed in transfected cells; host or cells: NIH 3T3 mouse cells
Protocol: Affinity of compounds at the serotonin 5HT2A binding site was determined by competition binding in NIH 3T3 mouse cells transfected with the rat 5HT2A receptor using 125I-DOI. The method was adapted from Leonhardt et al., Molecular Pharmacology, 42, 328-335 (1992). Frozen cell paste was homgenized in 50 mM tris-HCl buffer pH 7.4 containing 2 mM MgCl2 using a Polytron and centrifuged at 45000×g for ten minutes. The resulting pellet was resuspended in fresh ice-cold 50 mM tris-HCl buffer pH 7.4 containing 2 mM MgCl2 using a Polytron™ and centrifuged again at 45000×g for ten minutes. The final pellet was resuspended in 50 mM tris-HCl buffer pH 7.4 containing 2 mM MgCl2 at a concentraion of 5 mg/mL. Wells in a 96 well plate contained 25 μL of 0.7 nM 125I-DOI (70 pM final conc.), and 25 μL of vehicle (assay buffer), blank (10 μM cinanserin), or test compound (10× final volume). […] Filter mats were removed, dried and counted in a Wallac Betaplate counter. Concentration-response curves of the % inhibition of specific binding and log concentration by test compounds were used to determine the IC50 for each compound and the Ki value calculated based on the Cheng-Prusof equation (Ki=IC50/(1+(L/Kd)), where L is the concentration of the radioligand used in the binding assay and the Kd was based on previous saturation studies with the radioligand.

T2 sequence (P14842 whole entry): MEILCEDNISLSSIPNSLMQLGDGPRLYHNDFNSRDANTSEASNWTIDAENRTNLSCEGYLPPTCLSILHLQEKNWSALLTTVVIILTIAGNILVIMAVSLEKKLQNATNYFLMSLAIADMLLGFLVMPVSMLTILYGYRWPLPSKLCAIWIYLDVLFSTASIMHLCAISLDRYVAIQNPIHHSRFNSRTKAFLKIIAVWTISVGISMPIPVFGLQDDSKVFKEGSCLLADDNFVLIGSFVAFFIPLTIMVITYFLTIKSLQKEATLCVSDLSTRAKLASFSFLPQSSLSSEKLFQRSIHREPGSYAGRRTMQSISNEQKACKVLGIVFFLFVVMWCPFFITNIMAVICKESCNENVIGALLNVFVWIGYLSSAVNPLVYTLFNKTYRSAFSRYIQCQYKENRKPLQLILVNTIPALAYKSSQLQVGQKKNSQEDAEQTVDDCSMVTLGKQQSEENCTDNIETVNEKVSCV

c1ccc(COc2cncc(N3CCNCC3)n2)nc1 [Example 1-AW, 6′-(Pyridin-2-ylmethoxy)-3,4,5,6-tetrahydro-2H-[1,2′]bipyrazinyl hydrochloride salt]
Ki (human 5HT2c receptor): 586 nM

Fc1ccc(F)c(COc2cncc(N3CCNCC3)n2)c1 [Example 1-M, 6′-(2,5-Difluoro-benzyloxy)-3,4,5,6-tetrahydro-2H-[1,2′]bipyrazinyl]
effects on ICP of concomitant administration with PDE5 inhibitor [1]: beneficial effects on ICP | number of erectogenic events in a 15 minute test period (conscious male rat; 5 mg/kg s.c.): significantly increased | number of erectogenic events induced at 120 minutes after dosing (conscious male rat; 120 minutes after dosing): no difference | proerectile effects in the conscious rat (conscious male rat; conscious rat): induced proerectile effects | Number of erectogenic events @ 60 min (conscious male rat; conscious rat, 5 mg/kg s.c., 15 minute period, 60 min post injection): 1.5 ± 0.3 | Number of erectogenic events @ 120 min (conscious male rat; conscious rat, 5 mg/kg s.c., 15 minute period, 120 min post injection): 1.3 ± 0.5

Cc1cccc(CNc2cncc(N3CCNCC3)n2)n1 [Example 4-R, (6-Methyl-pyridin-2-ylmethyl)-(3,4,5,6-tetrahydro-2H-[1,2′]bipyrazinyl-6′-yl)-amine fumarate salt]
Ki (rat 5HT2A receptor): 1000 nM
